Values joined by “and” are separate entries in the source; they are usually repeats but may differ in a detail not shown here. Equal values may be shown once.
Tested on: LG0703-F498-PDC complex spheroid growth
Assay: Anticancer human tumor LG0703-F498-PDC patient-derived lung adenocarcinoma cell line growth inhibition [AhR]
Details: for viability, T/C: stronger effect = lower value
Procedure, shortened: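 Complex tumor spheroids co-cultured with HUVEC and human MSC stroma; AhR antagonists tested in combination with standard-of-care and investigational agents. Top concentration at or near clinical Cmax (else 10 microM), half-log dilutions; growth expressed as percent test/control.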

[1] = curve of first compound, second compound 0.1 µM
[2] = curve of first compound, second compound 0.316 µM
[3] = curve of first compound, second compound 1 µM
[4] = curve of first compound, second compound 3.16 µM
[5] = curve of first compound, second compound 10 µM
[6] = second compound 0.1 µM, first compound 0.0316 µM
[7] = second compound 0.1 µM, first compound 0.1 µM
[8] = second compound 0.1 µM, first compound 0.316 µM
[9] = second compound 0.1 µM, first compound 1 µM
[10] = second compound 0.1 µM, first compound 3.16 µM
[11] = second compound 0.1 µM, first compound 10 µM
[12] = second compound 0.316 µM, first compound 0.0316 µM
[13] = second compound 0.316 µM, first compound 0.1 µM
[14] = second compound 0.316 µM, first compound 0.316 µM
[15] = second compound 0.316 µM, first compound 1 µM
[16] = second compound 0.316 µM, first compound 3.16 µM
[17] = second compound 0.316 µM, first compound 10 µM
[18] = second compound 1 µM, first compound 0.0316 µM
[19] = second compound 1 µM, first compound 0.1 µM
[20] = second compound 1 µM, first compound 0.316 µM
[21] = second compound 1 µM, first compound 1 µM
[22] = second compound 1 µM, first compound 3.16 µM
[23] = second compound 1 µM, first compound 10 µM
[24] = second compound 3.16 µM, first compound 0.0316 µM
[25] = second compound 3.16 µM, first compound 0.1 µM
[26] = second compound 3.16 µM, first compound 0.316 µM
[27] = second compound 3.16 µM, first compound 1 µM
[28] = second compound 3.16 µM, first compound 3.16 µM
[29] = second compound 3.16 µM, first compound 10 µM
[30] = second compound 10 µM, first compound 0.0316 µM
[31] = second compound 10 µM, first compound 0.1 µM
[32] = second compound 10 µM, first compound 0.316 µM
[33] = second compound 10 µM, first compound 1 µM
[34] = second compound 10 µM, first compound 3.16 µM
[35] = second compound 10 µM, first compound 10 µM
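Also: luminescence taken as a proxy for viable cell amount.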
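For viability, T/C in this document: percent of DMSO vehicle control where 100% means growth equal to vehicle.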

Structure (SMILES) | IC50 [1] | IC50 [2] | IC50 [3] | IC50 [4] | IC50 [5] | viability, T/C [6] | viability, T/C [7] | viability, T/C [8] | viability, T/C [9] | viability, T/C [10] | viability, T/C [11] | viability, T/C [12] | viability, T/C [13] | viability, T/C [14] | viability, T/C [15] | viability, T/C [16] | viability, T/C [17] | viability, T/C [18] | viability, T/C [19] | viability, T/C [20] | other results
COc1cccc2c1C(=O)c1c(O)c3c(c(O)c1C2=O)CC(O)(C(=O)CO)CC3OC1CC(N)C(O)C(C)O1 (configuration not stated) + CC(CO)NC(=O)c1cc(-c2ccc(Cl)cc2)nn(-c2cnn(C)c2)c1=O | 770 nM | 523 nM | 547 nM | 459 nM | 360 nM | 82.7% | 80.6% | 72.2% | 43% | 14.2% | 1.2% | 84.3% | 84.2% | 58.4% | 36% | 12.7% | 0.83% | 86.7% | 89.6% | 61.6% | viability, T/C [21]: 34.7%; viability, T/C [22]: 10%; viability, T/C [23]: 0.76%; viability, T/C [24]: 82.7%; viability, T/C [25]: 84.8%; viability, T/C [26]: 59.3%; viability, T/C [27]: 27.4%; viability, T/C [28]: 4.74%; viability, T/C [29]: 1.92%; viability, T/C [30]: 71.3%; viability, T/C [31]: 73.8%; viability, T/C [32]: 54.1%; viability, T/C [33]: 13.9%; viability, T/C [34]: 0.65%; viability, T/C [35]: 0.96%
COc1cc(C2c3cc4c(cc3C(OC3OC5COC(C)OC5C(O)C3O)C3COC(=O)C23)OCO4)cc(OC)c1O (configuration not stated) + CC(CO)NC(=O)c1cc(-c2ccc(Cl)cc2)nn(-c2cnn(C)c2)c1=O | > 10000 nM | > 10000 nM | > 10000 nM | > 10000 nM | > 10000 nM | 111% | 108% | 93.9% | 87.9% | 81.8% | 76.3% | 98.6% | 107% | 99.8% | 81.5% | 93.3% | 69.9% | 100% | 103% | 101% | viability, T/C [21]: 94.3%; viability, T/C [22]: 75.7%; viability, T/C [23]: 75.2%; viability, T/C [24]: 91.1%; viability, T/C [25]: 95.8%; viability, T/C [26]: 96.5%; viability, T/C [27]: 81.7%; viability, T/C [28]: 72.8%; viability, T/C [29]: 75.5%; viability, T/C [30]: 84.3%; viability, T/C [31]: 85.7%; viability, T/C [32]: 90.7%; viability, T/C [33]: 78%; viability, T/C [34]: 73%; viability, T/C [35]: 60.8%
CC1COCCN1c1cc(-c2ccnn2C)c2ccnc(-c3ccn[nH]3)c2n1 (configuration not stated) | – | – | – | – | – | – | – | – | – | – | – | – | – | – | – | – | – | – | – | – | viability, T/C (compound 0.00316 µM): 97.6% and 98.2% and 105%; viability, T/C (compound 0.01 µM): 102% and 105% and 98.7%; viability, T/C (compound 0.0316 µM): 106% and 82.9% and 90.9%; viability, T/C (compound 0.1 µM): 86.3% and 83.7% and 85%; viability, T/C (compound 0.316 µM): 62.1% and 66.7% and 69.9%; viability, T/C (compound 1 µM): 40.7% and 43.3% and 42%; IC50 (curve of compound): 597 nM and 726 nM and 723 nM
